The numbers were not newly measured in patent publication US8865693B2, “Prevention of infection” (Pop Test Cortisol LLC, priority 2011, dated 2014), which cites them from elsewhere.

Data set [1] deals with mineralocorticoid, progesterone, estrogen and androgen receptors. Conditions: in words only.
A further data set concerns the target T1, glucocorticoid receptor (Homo sapiens, UniProt P04150).
T1 sequence (P04150 1-777): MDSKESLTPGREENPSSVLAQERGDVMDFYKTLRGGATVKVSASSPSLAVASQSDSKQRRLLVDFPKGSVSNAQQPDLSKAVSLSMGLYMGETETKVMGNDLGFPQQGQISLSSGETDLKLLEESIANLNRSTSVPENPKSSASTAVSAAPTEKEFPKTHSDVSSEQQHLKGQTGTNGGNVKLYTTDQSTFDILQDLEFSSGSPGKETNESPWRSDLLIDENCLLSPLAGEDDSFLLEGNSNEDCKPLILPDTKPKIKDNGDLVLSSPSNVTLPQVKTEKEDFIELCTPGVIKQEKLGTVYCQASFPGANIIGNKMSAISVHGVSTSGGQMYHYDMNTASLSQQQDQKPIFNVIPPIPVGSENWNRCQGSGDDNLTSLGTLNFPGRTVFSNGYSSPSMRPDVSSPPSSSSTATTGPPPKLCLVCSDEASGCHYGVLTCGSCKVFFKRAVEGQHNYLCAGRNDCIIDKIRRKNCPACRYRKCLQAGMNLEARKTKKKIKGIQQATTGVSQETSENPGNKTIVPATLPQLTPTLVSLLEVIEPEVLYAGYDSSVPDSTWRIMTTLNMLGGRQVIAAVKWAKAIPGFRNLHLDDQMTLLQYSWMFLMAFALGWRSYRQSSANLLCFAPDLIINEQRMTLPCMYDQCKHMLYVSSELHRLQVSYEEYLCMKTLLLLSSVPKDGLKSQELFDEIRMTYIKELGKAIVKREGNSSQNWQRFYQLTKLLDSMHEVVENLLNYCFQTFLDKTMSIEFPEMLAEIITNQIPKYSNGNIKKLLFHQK
Particulars: in words only.

For data set [2] the following is noted: in words only.
The conditions of data set [3]: phase I and phase II clinical trials already performed.
The conditions of data set [4]: in words only. This is another data set of the same source.

Take `CC#C[C@]1(O)CC[C@H]2[C@@H]3CCC4=CC(=O)CCC4=C3[C@@H](c3ccc4c(c3)OCO4)C[C@@]21C` [ORG 34517, (11β,17β)-11-(1,3-benzodioxol-5-yl)-17-hydroxy-17-(1-propynyl) estra-4,9-dien-3-one]: the “cross-binding to other related steroidal hormone receptors (such as those for estrogen and progesterone)” value in data set [1] is on record as “without significant cross-binding”. Besides, the “glucocorticoid receptor binding affinity” value at glucocorticoid receptor is reported as “high”. The progestagenic activities entry in data set [2] is listed as “low”. Further, the “significant toxicities and side effects identified” value in data set [3] is on record as “none were identified”. In data set [4], the androgenic activities result is recorded as “low”.
